Data set [1] relates to stomach cancer cell (SC-M1). The data set is described as follows: Cytotoxic assay by colorimetric MTT assay (growth inhibition), stomach cancer. The settings on record: for IC50: Homo sapiens, 72 h, SC-M1, 10000 cells per well, 3 days incubation, mean of 4 experiments. The format is cell-based, human. As to the method:
(§1) The in-vitro studies for evaluating these α-alkylatedderivatives of azatyrosine were performed and the general procedures are listed as follow:
(§2) Human stomach cancer cell line (SC-M1), and human breast cancer cell line (BC-M1) sampled from inpatients at Tri-service General Hospital in Taipei (Taiwan) were cultured and used in the experiments. All cells from primary culture and subculture were grown in 10% RPMI 1640 supplemented with 100 U/mL penicillin G, 100 μg/mL amphotericin B, and 10% fetal calf serum (FCS) in a 5% CO2 incubator at 37° C.
(§3) The cytotoxicity of these compounds against cultured cancer cells was determined by utilizing in-vitro MTT assay. L-azatyrosine and its α-alkylated derivatives were dissolved in milli-Q water at a concentration of 1 mg/mL and diluted with 10% FCS-RPMI to various concentrations, respectively. Single cell suspension (100 μL) and each compounds (100 μL) were added to 96-well flat-bottom microplate. 10% FCS-RPMI (100 μL) was used as a control group. After 3 days incubation at 37° C. in a 5% CO2 incubator, stock MTT (10 μL of 5 mg/mL for each 100 μL solution in well) solution was added to all wells. After additional 2 h incubation in a 5% CO2 incubator, The mixture was centrifuged (1000 rpm for 5 min) and the supernatant was carefully pipetted out. The residue was mixed well with DMSO (100 μL). The optical density of plates was recorded on a MRX Spectrophotometer (Dynatech, Guernsey, UK) at a wavelength of 550 nm.
(§4) Fractional inhibition was calculated as [1-(optical density of sample/optical density of control)]. The IC50 values for each compound were determined as a parameter for cytotoxicity, which is the concentration of a test compound exerting 50% survival of cancer cells, compared to untreated controls. Each value is the mean of four experiments. A specific example of the in-vitro study is shown Example 8.
(§5) A series of α-alkylated derivatives of L-azatyrosine were studied for their in-vitro effects according to the above procedures. The growth inhibition of L-azatyrosine and its derivatives on human cancer cell lines (BC-M1 and SC-M1) has been shown on Table 1.

Data set [2] relates to breast cancer cell (BC-M1). The data set can be described thus: Cytotoxic assay by colorimetric MTT assay (growth inhibition), breast cancer. The data set is classed as cell-based, human. The conditions noted are these: for IC50: Homo sapiens, 72 h, BC-M1, 10000 cells per well, 3 days incubation, mean of 4 experiments. The method, then:
as §1, §2, §3, §4, §5
For orientation: Formazan colour is commonly taken as a measure of viable cells.

Data set [3] has as its system TSU-Prl. The settings on record: incubation for 7 days; cited from earlier work.
In data set [4] the test system is activated c-Ha-ras-transformed NIH3T3 cells. The conditions noted are these: cited from earlier work.
Data set [5] has as its system PC-3. The settings on record: incubation for 7 days; cited from earlier work.
Data set [6] deals with pappilomas induced by a chemical carcinogen. The conditions noted are these: 2 mg/mouse once every two days for 12 days; cited from earlier work.
The test system of data set [7] is prostate tumorigenic growth. The settings on record: cited from earlier work.
Data set [8] concerns anticancer activity. The settings on record: cited from earlier work.
Data set [9] has as its system human prostate cancer cells. The settings on record: cited from earlier work.
For data set [10], the system named is 7,12-dimethylbenz[a]anthracene or methylnitrosourea-induced carcinogenesis in mice. The conditions noted are these: mice harboring a normal c-Ha-ras gene; cited from earlier work.
The test system of data set [11] is DU-145. The settings on record: incubation for 7 days; cited from earlier work.
The subject of data set [12] is cells possessing normal ras gene. The settings on record: cited from earlier work.

We go through 8 compounds from US6037357A, “N-benzoyl-α-alkylated azatyrosines as anticancer agents” (Unitech Pharmaceuticals, Inc., priority 1999, dated 2000).

As a reminder, the IC50 is the concentration needed to halve the response being measured.

Structures are written as SMILES. Entries after “also recorded” stand apart in the source; their conditions may differ.

In the case of `CC(C)CC(Cc1ccc(O)cn1)(NC(=O)c1ccccc1)C(=O)O` (racemic) [Compound 8b, N-Benzoyl-α-isobutyl-DL-azatyrosine], the concentration for half-maximal inhibition (IC50) came out at 1200 µM in [1] and 1000 µM in data set [2].
As for `CC(Cc1ccc(O)cn1)(NC(=O)c1ccccc1)C(=O)O` (racemic) [Compound 8a, N-Benzoyl-α-methyl-DL-azatyrosine], the values for the IC50 in data set [1] and in [2] were 800 µM and 1300 µM, respectively.
On to `CC(C)CC(Cc1ccc(O)cn1)(NC(=O)c1ccccc1)C(=O)N[C@@H](C)c1ccccc1` (mixture of isomers) [Compound 10b, N-Benzoyl-α-isobutyl-DL-azatyrosyl-(S)-1-phenylethylamide], for which, in data set [1], 300 µM corresponded to half-maximal inhibition (IC50) and the “cytotoxicity / growth inhibition compared with L-azatyrosine (in words), SC-M1” value is “higher growth inhibition than that of L-azatyrosine”. For the same compound, in [2], the “cytotoxicity / growth inhibition compared with L-azatyrosine (in words), BC-M1” value is recorded as “higher growth inhibition than that of L-azatyrosine” and the concentration for half-maximal inhibition (IC50) was determined as 300 µM.
Take `C[C@H](NC(=O)C(Cc1ccccc1)(Cc1ccc(O)cn1)NC(=O)c1ccccc1)c1ccccc1` (mixture of isomers) [Compound 10c, N-Benzoyl-α-benzyl-DL-azatyrosyl-(S)-1-phenylethylamide]: in data set [1], the concentration for half-maximal inhibition (IC50) is 80 µM and the “cytotoxicity / growth inhibition compared with L-azatyrosine (in words), SC-M1” value is on record as “higher growth inhibition than that of L-azatyrosine; also recorded: excellent cytotoxicity on SC-M1 compared with L-azatyrosine”. Further, in [2], the “cytotoxicity / growth inhibition compared with L-azatyrosine (in words), BC-M1” value was “higher growth inhibition than that of L-azatyrosine” and the IC50 amounted to 600 µM.
On to `CCOC(=O)C(Cc1ccc(O)cn1)(CC(C)C)NC(=O)c1ccccc1` (racemic) [Compound 9b, Ethyl N-benzoyl-α-isobutyl-DL-azatyrosinate], for which the IC50 was 600 µM in data set [1] and 700 µM in data set [2].
For `O=C(NC(Cc1ccccc1)(Cc1ccc(O)cn1)C(=O)O)c1ccccc1` (racemic) [Compound 8c, N-benzoyl-α-benzyl-DL-azatyrosine], the IC50 in [1] and in [2] was 600 µM throughout.
In the case of `N[C@@H](Cc1ccc(O)cn1)C(=O)O` [L-Azatyrosine, L-azatyrosine], in data set [3], the “in-vitro growth inhibition, TSU-Prl” value is given as “greater than 95%”. For the same compound, the “reversion of activated c-Ha-ras-transformed NIH3T3 cells to the apparently normal phenotype” value in data set [4] was “induces permanent reversion”. In addition, in [5], the “in-vitro growth inhibition, PC-3” value is “greater than 95%”. Further, the “block of pappilomas induced by a chemical carcinogen” value in [6] is “can block pappilomas”. Also, the “inhibition of prostate tumorigenic growth” value in [7] is given as “inhibit prostate tumorigenic growth”. For the same compound, the “concentrations required for the anticancer activity” value in data set [8] was 1 to 2 mM. Also, the IC50 in data set [1] turned out to be 1600 µM; in [2] it was 2200 µM. Besides, in data set [9], the “reversion efficiency on human prostate cancer cells” value is recorded as “high reversion efficiency”. In addition, the “inhibition of 7,12-dimethylbenz[a]anthracene or methylnitrosourea-induced carcinogenesis” value in data set [10] is on record as “inhibits”. Also, the “in-vitro growth inhibition, DU-145” value in data set [11] was “greater than 95%”. In addition, the “effect on the growth of cells possessing normal ras gene” value in [12] is listed as “without significantly affecting the growth”.
As to `CCOC(=O)C(Cc1ccccc1)(Cc1ccc(O)cn1)NC(=O)c1ccccc1` (racemic) [Compound 9c, Ethyl N-benzoyl-α-benzyl-DL-azatyrosinate], the values for the half-inhibitory concentration (IC50) in data set [1] and in data set [2] were 1000 µM and 900 µM, respectively.
